Measurements published in patent publication US7998993B2, “TRPV1 antagonists” (Abbott Laboratories, priority 2007, dated 2011).
pIC50: −log10 of the molar value. Like-named read-outs stand apart in the source and are kept apart here.

Experiments:
human TRPV1 receptor = target: T1, human TRPV1 receptor (Homo sapiens, UniProt Q8NER1); test: Ca2+ influx assay (FLIPR, Fluo-4 AM) with capsaicin challenge in 1321N1 cells expressing recombinant TRPV1; type: cell-based; conditions: inhibition of 0.05 μM capsaicin response, hTRPV1 in 1321N1 human astrocytoma cells
T1 construct: expressed in transfected cells
T1 sequence (Q8NER1 whole entry): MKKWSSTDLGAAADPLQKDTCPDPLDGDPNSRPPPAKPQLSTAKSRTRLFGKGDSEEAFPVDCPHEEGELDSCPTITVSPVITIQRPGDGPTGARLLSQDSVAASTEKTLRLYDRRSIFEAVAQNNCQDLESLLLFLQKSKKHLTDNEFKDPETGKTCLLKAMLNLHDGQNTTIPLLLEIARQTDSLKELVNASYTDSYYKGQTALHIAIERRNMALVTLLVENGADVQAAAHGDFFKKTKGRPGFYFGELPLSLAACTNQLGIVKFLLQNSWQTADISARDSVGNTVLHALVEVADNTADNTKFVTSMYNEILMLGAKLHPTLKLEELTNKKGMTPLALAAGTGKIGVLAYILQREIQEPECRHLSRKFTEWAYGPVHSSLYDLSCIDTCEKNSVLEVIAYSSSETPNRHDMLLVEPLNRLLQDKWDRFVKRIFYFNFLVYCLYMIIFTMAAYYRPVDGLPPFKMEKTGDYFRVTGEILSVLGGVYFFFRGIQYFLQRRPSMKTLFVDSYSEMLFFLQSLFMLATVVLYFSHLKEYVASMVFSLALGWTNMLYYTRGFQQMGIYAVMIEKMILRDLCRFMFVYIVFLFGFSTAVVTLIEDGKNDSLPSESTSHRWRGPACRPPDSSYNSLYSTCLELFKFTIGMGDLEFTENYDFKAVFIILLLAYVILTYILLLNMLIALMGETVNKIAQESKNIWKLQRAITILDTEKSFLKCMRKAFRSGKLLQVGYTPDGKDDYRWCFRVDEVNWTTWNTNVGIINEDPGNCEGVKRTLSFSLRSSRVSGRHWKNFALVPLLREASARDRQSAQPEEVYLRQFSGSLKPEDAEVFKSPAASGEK
Experimental: Dulbecco's modified Eagle medium (D-MEM) (with 4.5 mg/mL glucose) and fetal bovine serum were obtained from Hyclone Laboratories, Inc. (Logan, Utah). Dulbecco's phosphate-buffered saline (D-PBS) (with 1 mg/mL glucose and 3.6 mg/l Na pyruvate, without phenol red), L-glutamine, hygromycin B, and Lipofectamine® were obtained from Life Technologies (Grand Island, N.Y.). G418 sulfate was obtained from Calbiochem-Novabiochem Corp. (San Diego, Calif.). Capsaicin (8-methyl-N-vanillyl-6-nonenamide) was obtained from Sigma-Aldrich, Co. (St. Louis, Mo.). Fluo-4 AM (N-[4-[6-[(acetyloxy)methoxy]-2,7-difluoro-3-oxo-3H-xanthen-9-yl]-2-[2-[2-[bis[2-[(acetyloxy)methoxy]-2-oxyethyl]amino]-5-methy lphenoxy]ethoxy]phenyl]-N-[2-[(acetyloxy)methoxy]-2-oxyethyl]-glycine, (acetyloxy)methyl ester) was purchased from Molecular Probes (Eugene, Oreg.).
The cDNAs for the human TRPV1 receptor were isolated by reverse transcriptase-polymerase chain reaction (RT-PCR) from human small intestine poly A+RNA supplied by Clontech (Palo Alto, Calif.) using primers designed surrounding the initiation and termination codons identical to the published sequences (Hayes et al. Pain Vol. 88 pages 205-215, 2000). The resulting cDNA PCR products were subcloned into pCIneo mammalian expression vector (Promega) and fully sequenced using fluorescent dye-terminator reagents (Prism, Perkin-Elmer Applied Biosystems Division) and a Perkin-Elmer Applied Biosystems Model 373 DNA sequencer or Model 310 genetic analyzer. Expression plasmids encoding the hTRPV1 cDNA were transfected individually into 1321N1 human astrocytoma cells using Lipofectamine®. Forty-eight hours after transfection, the neomycin-resistant cells were selected with growth medium containing 800 μg/mL Geneticin (Gibco BRL). Surviving individual colonies were isolated and screened for TRPV1 receptor activity. Cells expressing recombinant homomeric TRPV1 receptors were maintained at 37° C. in D-MEM containing 4 mM L-glutamine, 300 μg/mL G418 (Cal-biochem) and 10% fetal bovine serum under a humidified 5% CO2 atmosphere.
The functional activity of compounds at the TRPV1 receptor was determined with a Ca^2+ influx assay and measurement of intracellular Ca^2+ levels ([Ca^2+]i). All compounds were tested over an 11-point half-log concentration range. Compound solutions were prepared in D-PBS (4× final concentration), and diluted serially across 96-well v-bottom tissue culture plates using a Biomek 2000 robotic automation workstation (Beckman-Coulter, Inc., Fullerton, Calif.). A 0.2 μM solution of the TRPV1 agonist capsaicin was also prepared in D-PBS. The fluorescent Ca^2+ chelating dye Fluo-4 AM was used as an indicator of the relative levels of [Ca^2+]i in a 96-well format using a Fluorescence Imaging Plate Reader (FLIPR)(Molecular Devices, Sunnyvale, Calif.). Cells were grown to confluency in 96-well black-walled tissue culture plates. Then, prior to the assay, the cells were loaded with 100 μL per well of Fluo-4 AM (2 μM, in D-PBS) for 1-2 hours at 23° C. Washing of the cells was performed to remove extracellular Fluo-4 AM (2×1 mL D-PBS per well), and afterward, the cells were placed in the reading chamber of the FLIPR instrument. 50 μL of the compound solutions were added to the cells at the 10 second time mark of the experimental run. Then, after a 3-minute time delay, 50 μL of the capsaicin solution was added at the, 190 seconds time mark (0.05 μM final concentration)([…]) to challenge the TRPV1 receptor. Time length of the experimental run was 240 seconds. Fluorescence readings were made at 1 to 5 second intervals over the course of the experimental run. The peak increase in relative fluorescence units (minus baseline) was calculated from the 190 seconds time mark to the end of the experimental run, and expressed as a percentage of the 0.05 μM capsaicin (control) response.

[1] = Plasma and brain concentrations in rats after an oral dose; type: in vivo; conditions: rat, fasted male Sprague-Dawley rats, two hours after dosing; for Kp at 2 h: brain/plasma
Experimental: The compounds were prepared as a solution in a 10% DMSO/poly(ethylene glycol)-400 (v/v). Blood and brain samples were obtained from each animal two hours after dosing.
Rat brain tissue was homogenized with two parts water (by weight). Test compound was selectively extracted from plasma and brain homogenate using liquid-liquid extraction with tert-butylmethylether. The compounds of interest were separated from co-extracted contaminants on a 50×3 mm, Luna CN column (Phenomenex), with an acetonitrile:0.1% aqueous trifluoroacetic acid mobile phase at a flow rate of 0.35 ml/min. Plasma and tissue concentrations were determined by HPLC-MS/MS on an API2000 with Turbo Ion Spray interface, with MRM detection in the positive ionization mode. To calibrate compound concentration, a separate portion of each tissue sample was spiked with a known quantity of test compound and analyzed simultaneously with the samples.

[2] = brain, 30 μmol/kg oral, read-out: [Brain]
[3] = plasma, 30 μmol/kg oral, read-out: [Plasma]
[4] = brain, 10 μmol/kg PO, read-out: [Brain]
[5] = plasma, 10 μmol/kg PO, read-out: [Plasma]

Compound | pIC50 (human TRPV1 receptor) | Kp at 2 h ([1]; 30 μmol/kg oral) | concentration at 2 h [1, 2] [ng/g] | concentration at 2 h [1, 3] [ng/mL] | Kp at 2 h ([1]; 10 μmol/kg PO) | concentration at 2 h [1, 4] [ng/g] | concentration at 2 h [1, 5] [ng/mL]
Cc1nc(Nc2cccc3c2CC(O)CC3)oc1-c1ccc(C(F)(F)F)c(F)c1F (stereo not drawn) [Compound 6, 8-({5-[2,3-difluoro-4-(trifluoromethyl)phenyl]-4-methyl-1,3-oxazol-2-yl}amino)-1,2,3,4-tetrahydronaphthalen-2-ol] | 7.21 | 1.7 | 230 | 130 | – | – | –
C=C(C)[C@H]1CC=C(c2oc(Nc3cccc4c3CC(O)CC4)nc2C)CC1 (stereo partly drawn) [Compound 32, 8-({5-[(4R)-4-isopropenylcyclohex-1-en-1-yl]-4-methyl-1,3-oxazol-2-yl}amino)-1,2,3,4-tetrahydronaphthalen-2-ol] | 6.40 | – | – | – | 1.9 | 15 | 9
Cc1nc(Nc2cccc3c2CC(O)CO3)oc1-c1ccc(C(F)(F)F)cc1 (stereo not drawn) [Compound 51, 5-({4-methyl-5-[4-(trifluoromethyl)phenyl]-1,3-oxazol-2-yl}amino)chroman-3-ol] | 6.21 | – | – | – | 2.7 | 800 | 300
O[C@@H]1CCc2cccc(Nc3nc(C(F)F)c(-c4ccc(C(F)(F)F)cc4)o3)c2C1 [Compound 53, (2R)-8-({4-(difluoromethyl)-5-[4-(trifluoromethyl)phenyl]-1,3-oxazol-2-yl}amino)-1,2,3,4-tetrahydronaphthalen-2-ol] | 7.42 | – | – | – | 3.4 | 930 | 270
OC1CCc2cccc(Nc3ncc(-c4ccc(C(F)(F)F)cc4)o3)c2C1 (stereo not drawn) [Compound A, 8-({5-[4-(trifluoromethyl)phenyl]-1,3-oxazol-2-yl}amino)-1,2,3,4-tetrahydronaphthalen-2-ol, reference compound] | 7.66 | 0 | 0 | 0 | – | – | –

The remaining lines, values ahead:

pIC50 (human TRPV1 receptor) | Kp at 2 h ([1]; 30 μmol/kg oral) | concentration at 2 h [1, 2] [ng/g] | concentration at 2 h [1, 3] [ng/mL] | Kp at 2 h ([1]; 10 μmol/kg PO) | concentration at 2 h [1, 4] [ng/g] | concentration at 2 h [1, 5] [ng/mL] | Compound
7.37 | 3 | 660 | 210 | – | – | – | Cc1nc(Nc2cccc3c2CC(O)CC3)oc1-c1ccc(C(F)(F)F)cc1F (stereo not drawn) [Compound 5, 8-({5-[2-fluoro-4-(trifluoromethyl)phenyl]-4-methyl-1,3-oxazol-2-yl}amino)-1,2,3,4-tetrahydronaphthalen-2-ol]
6.74 | 4 | 2100 | 510 | – | – | – | Cc1nc(Nc2cccc3c2CC(O)CC3)oc1-c1ccc(OC(F)(F)F)cc1 (stereo not drawn) [Compound 9, 8-({4-methyl-5-[4-(trifluoromethoxy)phenyl]-1,3-oxazol-2-yl}amino)-1,2,3,4-tetrahydronaphthalen-2-ol]
– | 6.3 | 3300 | 490 | – | – | – | Cc1nc(Nc2cccc3c2CC(O)CC3)oc1-c1ccc(C(F)(F)F)cc1 (stereo not drawn) [Compound 12, 8-({4-methyl-5-[4-(trifluoromethyl)phenyl]-1,3-oxazol-2-yl}amino)-1,2,3,4-tetrahydronaphthalen-2-ol]
6.97 | 5.6 | 600 | 93 | – | – | – | Cc1nc(Nc2cccc3c2CC(O)CC3)oc1-c1ccc(Cl)cc1 (stereo not drawn) [Compound 13, 8-{[5-(4-chlorophenyl)-4-methyl-1,3-oxazol-2-yl]amino}-1,2,3,4-tetrahydronaphthalen-2-ol]
7.44 | 1.3 | 310 | 250 | – | – | – | Cc1nc(Nc2cccc3c2CC(O)CC3)oc1-c1ccc(C#N)cc1 (stereo not drawn) [Compound 15, 4-{2-[(7-hydroxy-5,6,7,8-tetrahydronaphthalen-1-yl)amino]-4-methyl-1,3-oxazol-5-yl}benzonitrile]
6.15 | – | – | – | 1.3 | 50 | 40 | Cc1nc(Nc2cccc3c2CC(O)CC3)oc1-c1ccc(C(F)(F)F)o1 (stereo not drawn) [Compound 31, 8-({4-methyl-5-[5-(trifluoromethyl)-2-furyl]-1,3-oxazol-2-yl}amino)-1,2,3,4-tetrahydronaphthalen-2-ol]
7.28 | – | – | – | 1.4 | 160 | 110 | Cc1nc(Nc2cccc3c2CC(O)CC3)oc1-c1ccc(S(F)(F)(F)(F)F)cc1 (stereo not drawn) [Compound 40, 8-({4-methyl-5-[4-(pentafluoro-lambda˜6˜sulfanyl)phenyl]-1,3-oxazol-2-yl}amino)-1,2,3,4-tetrahydronaphthalen-2-ol]
7.13 | – | – | – | 2.8 | 410 | 140 | CCc1nc(Nc2cccc3c2C[C@H](O)CC3)oc1-c1ccc(C(F)(F)F)cc1 [Compound 43, (2R)-8-({4-ethyl-5-[4-(trifluoromethyl)phenyl]-1,3-oxazol-2-yl}amino)-1,2,3,4-tetrahydronaphthalen-2-ol]
